Assay results reported in PMC10035370, “Targeting Tumor Angiogenesis with the Selective VEGFR-3 Inhibitor EVT801 in Combination with Cancer Immunotherapy” (Cancer Research Communications, 2022).

Experiments:
Pharmacokinetics in rats = type: in vivo; settings: rat, plasma; Sprague-Dawley rats, 10 mg/kg; read-out: T1/2 in plasma (converted)
Procedure: Plasma samples and tumor homogenates were mixed with the precipitant solution (acetonitrile containing internal standard). The supernatant (180 µL) was transferred in a 96-well plate and 5 µL were injected. EVT801 and its main metabolite were quantified by LC-MS/MS following standard conditions.

tubule formation = assay: Mouse aortic ring assay stimulated by a 4T1 tumor fragment; type: cell-based; settings: 300 nM, day 8
Procedure: Neo-angiogenesis was studied in vitro by culturing rings of mouse thoracic aorta in 3-dimensional collagen gels, as previously described (2), but the mouse serum was replaced by a piece of 4T1 tumor. Briefly, 1 mm-long aortic ring-shaped fragments of 9-week old C57Bl/6J mice, and 1 mm^3 4T1 tumor pieces resected 21 days after orthotopic injection in mammary fat pad of BALB/c mice were embedded in a rat tail interstitial collagen gel (1.5 mg/mL). It was prepared by mixing 7.5 volumes of 2 mg/mL collagen (Collagen R, Serva), 1 volume of 10 x minimum essential medium (MEM, Life Technologies Ltd.), 1.5 volumes of NaHCO3 (15.6 mg/mL), and 0.1 volume 1 M NaOH to adjust the pH to 7.4. The collagen gels containing the aortic rings were polymerized in cylindrical agarose wells, and kept in triplicate at 37 °C in 60 mm diameter Petri dishes (bacteriological polystyrene; Falcon, Becton Dickinson). Each dish contained 6 mL of MCDB131 (Life Technologies Ltd.) supplemented with 25 mM NaHCO3, 1 % glutamine, 100 U/mL penicillin, and 100 µg/mL streptomycin. The cultures were kept at 37 °C in a humidified environment for 8 days and examined every other day with a Nikon microscope at appropriate magnification. […] Quantification of pseudo-tubules was performed at day 8 using an automated computer-assisted image analysis system (Morpho Expert V2.50, Explora Nova, La Rochelle, France). […]

4T1 tumors = assay: 4T1 mammary carcinoma mouse model, with anti-PD-1; type: in vivo, mice
Procedure: The 4T1 mammary carcinoma mouse models were used as reported previously ([26]). Briefly, 1 × 10^5 4T1 cells were implanted into mammary fat pads of BALB/c mice. […] Tumors were measured two to three times weekly with calipers. The tumor volume (V) was calculated using the formula V = 0.52 × a^2 × b (a: smallest tumor diameter; b: largest tumor diameter). The tumors, lungs, and axillary lymph nodes were removed at day 21 for treatment with anti-PD-1, and day 28 for treatment with anti-CTLA-4. The tumors and the lungs were embedded in paraffin for histology studies. […] The metastatic scoring was determined as follows: (0) no metastasis; ([1]) 1 to 20 metastases < 50 μm; ([2]) between 21 and 50 metastases < 50 μm; ([3]) 1 or more metastases > […]; ([4]) 1 or more metastases > […].

VEGFR-1 [1] = target: T1, VEGFR-1 (Homo sapiens, UniProt P17948); assay: Cellular autophosphorylation assay, HEK293 cells transiently expressing VEGFR-1; type: cell-based
T1 construct: expressed in transfected cells; host or cells: HEK293T
Procedure: Transfection of HEK293T cells and Ba/F3 cells with VEGFR-1-Flag, VEGFR-2-Flag or VEGFR-3-Flag expression constructs was performed using Fugene-6 (Roche) as per manufacturer’s protocol. Briefly, Fugene-6 was pre-incubated with Opti-Mem (Gibco) before adding DNA. After 24 h, media was replaced with serum-free culture media containing 0.2 % BSA. On the next day, cells were incubated for 1 h in 1 mM orthovanadate, harvested, dissociated and distributed at 4 x 10^5 cells in 5 mL for HEK-VEGFR-1 and HEK-VEGFR-3, and 5 x 10^4 cells per 5 mL for HEK VEGFR-2 in the presence of EVT801 or SAR401849. After 30 min, the reaction was stopped by the addition of cold PBS supplemented with 1 mM orthovanadate. Cells were then lysed with 150 μl of RIPA buffer for 15 min at 4°C, then centrifuged for 10 min at 10,000 g. Supernatants (75 μl) were distributed in duplicate on 96 well plates that were precoated with the anti-flag, and left for 1 h at room temperature. After 3 washes, the anti-phosphotyrosine conjugated to the HRP was added and incubated for 1 h at room temperature. Wells were then washed 3 times with TBS buffer containing 0.5 % Tween-20 and 2 mM MgCl2. The reaction was stopped with 50 μL of 2 N H2SO4, and the signal was read with Envision at the wavelengths of 485 nm and 530 nm.
T1 sequence (P17948 27-1338): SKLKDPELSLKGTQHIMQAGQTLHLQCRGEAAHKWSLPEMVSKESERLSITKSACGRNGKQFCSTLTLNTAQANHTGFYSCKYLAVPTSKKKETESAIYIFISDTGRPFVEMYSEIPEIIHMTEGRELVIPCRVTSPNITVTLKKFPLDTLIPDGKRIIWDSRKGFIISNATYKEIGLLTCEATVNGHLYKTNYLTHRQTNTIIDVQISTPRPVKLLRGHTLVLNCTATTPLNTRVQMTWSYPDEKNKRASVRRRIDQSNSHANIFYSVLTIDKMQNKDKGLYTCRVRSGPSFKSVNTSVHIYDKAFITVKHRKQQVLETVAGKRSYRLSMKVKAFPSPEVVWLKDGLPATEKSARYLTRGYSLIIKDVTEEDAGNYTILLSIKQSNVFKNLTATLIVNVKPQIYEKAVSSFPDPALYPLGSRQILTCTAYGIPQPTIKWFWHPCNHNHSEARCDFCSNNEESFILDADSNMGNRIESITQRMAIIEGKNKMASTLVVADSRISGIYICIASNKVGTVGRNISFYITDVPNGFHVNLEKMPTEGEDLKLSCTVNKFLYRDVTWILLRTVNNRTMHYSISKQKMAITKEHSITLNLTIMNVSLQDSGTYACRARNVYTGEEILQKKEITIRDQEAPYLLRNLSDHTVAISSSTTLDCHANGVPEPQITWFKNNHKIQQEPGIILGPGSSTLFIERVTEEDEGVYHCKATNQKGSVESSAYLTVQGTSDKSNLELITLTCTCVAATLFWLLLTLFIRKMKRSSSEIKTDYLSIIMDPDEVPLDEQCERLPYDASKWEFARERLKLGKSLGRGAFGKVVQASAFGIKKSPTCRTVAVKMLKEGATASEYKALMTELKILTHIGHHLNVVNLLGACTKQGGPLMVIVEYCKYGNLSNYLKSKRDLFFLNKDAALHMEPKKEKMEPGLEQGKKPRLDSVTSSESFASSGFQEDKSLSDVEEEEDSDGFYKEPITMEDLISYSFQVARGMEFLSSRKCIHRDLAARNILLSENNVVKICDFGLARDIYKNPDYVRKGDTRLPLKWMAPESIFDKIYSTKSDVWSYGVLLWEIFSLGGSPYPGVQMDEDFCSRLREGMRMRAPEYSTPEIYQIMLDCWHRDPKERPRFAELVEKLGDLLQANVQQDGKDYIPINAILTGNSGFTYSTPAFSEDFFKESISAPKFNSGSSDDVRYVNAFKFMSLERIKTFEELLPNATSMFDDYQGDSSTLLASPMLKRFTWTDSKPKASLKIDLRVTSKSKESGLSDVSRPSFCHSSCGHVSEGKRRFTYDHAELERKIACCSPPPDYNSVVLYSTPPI

VEGFR-1 [2] = target: T2, VEGFR-1 (Homo sapiens, UniProt P17948); assay: Biochemical kinase assay (in vitro assay), VEGFR-1; settings: read-out: IC50 in biochemical assays, VEGFR-1
T2 construct: The VEGFR-1 tyrosine kinase domain was obtained from Upstake; purchased Upstake (so in the source)
T2 sequence (P17948 827-1158 limits assumed): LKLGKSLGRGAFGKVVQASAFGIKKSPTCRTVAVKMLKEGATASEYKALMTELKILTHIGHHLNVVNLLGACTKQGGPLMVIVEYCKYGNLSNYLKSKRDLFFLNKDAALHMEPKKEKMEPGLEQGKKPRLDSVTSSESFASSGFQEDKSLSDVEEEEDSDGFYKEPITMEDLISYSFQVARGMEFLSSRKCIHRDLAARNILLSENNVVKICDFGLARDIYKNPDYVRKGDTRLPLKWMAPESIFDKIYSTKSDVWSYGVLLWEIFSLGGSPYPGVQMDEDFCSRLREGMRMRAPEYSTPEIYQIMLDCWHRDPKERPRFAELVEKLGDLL
Procedure: Sigma protein kinase assay kits were used. 125 μL per well of Poly-Glu-Tyr (PGT) solution (250 μg/mL of PGT in PBS without Ca^2+, Mg^2+ and sodium bicarbonate) was added in a 96-well plate and overnight incubation was performed at 37 °C. The day after, coating solution was removed and wells were washed with 300 μL of PBS-Tween-20 0.05 %. The washing buffer was removed and wells were dried for 2 h at 37 °C. 90 μL of the kinase buffer was supplemented with ATP (30 μM for VEGFR-1 and VEGFR-3, and 15 μM for VEGFR-2), and the compound (EVT801 or SAR401849 at the indicated concentration or 1 % DMSO for the vehicle control). The phosphorylation reaction was initiated by the addition of 20 μL of kinase buffer without ATP supplemented with 100 ng of the tyrosine kinase (or without tyrosine kinase as control). Plates were incubated with gentle agitation at room temperature for 30 min. After 3 washes with 300 μL of washing buffer, 100 μL of phosphotyrosine specific monoclonal antibody conjugated to HRP (1:30,000) was added onto the phosphorylated PGT. Plates were incubated for 30 min at room temperature under gentle agitation. Then, 3 washes with 300 μL of washing buffer were performed. […] After 7 min at room temperature, the reaction was stopped by addition of 100 μL of […], and absorbance was determined with an Endvision spectrophotometer at 492 nm.

CCn1c(N)c(-c2ncc[nH]2)c(=O)c2ccc(C#C[C@@](C)(O)COC)nc21 [EVT801]
half-life (Pharmacokinetics in rats): 2.4 h
tubule formation (tubule length) (tubule formation): prevents tumor-induced tubule formation almost completely
intratumor infiltrated CD8+ cells (4T1 tumors; endpoint, not statistically significant): globally doubled
T/C ratio, tumor volume (4T1 tumors; orthotopic, 2 weeks, EVT801 30 mg/kg twice per day and/or anti-PD-1 twice per week): 43%
maximum inhibition of VEGFR-1 (VEGFR-1 [1]; HEK293T cellular autophosphorylation assay): below 50%
IC50 (VEGFR-1 [1]; HEK293 cells, read-out: IC50 in cellular assays, VEGFR-1 autophosphorylation): 2.13 µM
IC50 (VEGFR-1 [2]): 0.396 µM
